The source of these data is ChEMBL document CHEMBL1909046, “DrugMatrix in vitro pharmacology data”.

The term IC50 denotes the concentration that inhibits the measured activity by half.

In one assay the target is Insulin receptor (Rattus norvegicus, UniProt P15127). Type of assay: cell membranes, Wistar, Liver, Membrane. Also: in other assays of this panel Not Active means under 50% inhibition at 10 µM.
A short description of assay [1]: DRUGMATRIX: Atrial Natriuretic Factor (ANF) radioligand binding (ligand: [125I] ANF (rat)). Type of assay: cell membranes, Cavia porcellus, Dunkin-Hartley, Adrenal gland, Membrane. The note with it: Not Active = under 50% inhibition at 10 µM.
In assay [2] the target is Tyrosine-protein kinase Fyn (Homo sapiens, UniProt P06241). Put plainly: biochemical. It counts as cell-based, Insect cells.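 Also: enzymatic inhibition of Fyn kinase activity measured with Poly(Glu:Tyr) as the phosphorylation substrate; in other assays of this panel Not Active means under 50% inhibition at 10 µM.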
Tyrosine-protein kinase Fyn, sequence (P06241 whole entry): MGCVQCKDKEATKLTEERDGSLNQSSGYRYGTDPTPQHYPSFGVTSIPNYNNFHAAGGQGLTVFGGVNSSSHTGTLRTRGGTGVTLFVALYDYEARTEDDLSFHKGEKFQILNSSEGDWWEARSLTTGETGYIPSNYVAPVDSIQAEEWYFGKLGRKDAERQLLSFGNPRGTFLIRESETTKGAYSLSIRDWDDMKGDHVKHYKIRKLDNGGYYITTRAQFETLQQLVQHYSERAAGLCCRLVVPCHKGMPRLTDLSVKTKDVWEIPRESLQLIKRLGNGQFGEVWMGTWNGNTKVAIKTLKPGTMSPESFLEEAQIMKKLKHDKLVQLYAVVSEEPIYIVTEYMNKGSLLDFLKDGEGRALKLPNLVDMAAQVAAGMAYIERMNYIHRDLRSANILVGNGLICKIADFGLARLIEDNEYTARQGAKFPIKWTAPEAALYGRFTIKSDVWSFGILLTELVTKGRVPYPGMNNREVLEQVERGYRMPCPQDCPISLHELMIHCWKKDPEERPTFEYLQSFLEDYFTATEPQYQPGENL
Another assay concerns the target Mu-type opioid receptor (Homo sapiens, UniProt P35372). The assay is described as follows: DRUGMATRIX: Opiate mu (OP3, MOP) radioligand binding (ligand: [3H] Diprenorphine). The settings on record: cho-k1; Not Active = under 50% inhibition at 10 µM. It counts as cell membranes, CHO-K1, Membrane.
Assay [3] concerns the target T1, Alpha-1D adrenergic receptor (Homo sapiens, UniProt P25100). Also: in other assays of this panel Not Active means under 50% inhibition at 10 µM.
T1 sequence (P25100 whole entry): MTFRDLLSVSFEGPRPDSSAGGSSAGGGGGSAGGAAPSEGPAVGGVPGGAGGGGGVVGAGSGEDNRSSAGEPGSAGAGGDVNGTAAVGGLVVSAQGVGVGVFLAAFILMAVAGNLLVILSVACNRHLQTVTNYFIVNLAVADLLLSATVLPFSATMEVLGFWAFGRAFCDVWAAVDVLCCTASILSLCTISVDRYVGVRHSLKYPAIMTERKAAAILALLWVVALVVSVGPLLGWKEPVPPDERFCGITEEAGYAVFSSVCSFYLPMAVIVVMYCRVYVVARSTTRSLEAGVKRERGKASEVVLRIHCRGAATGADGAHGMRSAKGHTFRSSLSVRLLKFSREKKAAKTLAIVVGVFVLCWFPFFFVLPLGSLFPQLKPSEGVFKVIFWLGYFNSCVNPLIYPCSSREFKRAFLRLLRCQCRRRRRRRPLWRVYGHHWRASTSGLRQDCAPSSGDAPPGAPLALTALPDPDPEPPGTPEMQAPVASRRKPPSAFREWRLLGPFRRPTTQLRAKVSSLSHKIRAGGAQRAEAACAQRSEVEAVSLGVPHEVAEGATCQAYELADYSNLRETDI
It counts as cell membranes, HEK293, Membrane. The settings on record: hek293.

Assay [4] in a line: DRUGMATRIX: Potassium Channel [KATP] radioligand binding (ligand: [3H] Glyburide). Type of assay: cell membranes, Membrane. The note with it: hit-t15; Not Active = under 50% inhibition at 10 µM.
The next assay has as its target D(1A) dopamine receptor (Homo sapiens, UniProt P21728). Put plainly: DRUGMATRIX: Dopamine D1 radioligand binding (ligand: [3H] SCH-23390). Type of assay: cell membranes, CHO, Membrane. The note with it: cho; Not Active = under 50% inhibition at 10 µM.

Insulin receptor, sequence (P15127 27-759 limits assumed): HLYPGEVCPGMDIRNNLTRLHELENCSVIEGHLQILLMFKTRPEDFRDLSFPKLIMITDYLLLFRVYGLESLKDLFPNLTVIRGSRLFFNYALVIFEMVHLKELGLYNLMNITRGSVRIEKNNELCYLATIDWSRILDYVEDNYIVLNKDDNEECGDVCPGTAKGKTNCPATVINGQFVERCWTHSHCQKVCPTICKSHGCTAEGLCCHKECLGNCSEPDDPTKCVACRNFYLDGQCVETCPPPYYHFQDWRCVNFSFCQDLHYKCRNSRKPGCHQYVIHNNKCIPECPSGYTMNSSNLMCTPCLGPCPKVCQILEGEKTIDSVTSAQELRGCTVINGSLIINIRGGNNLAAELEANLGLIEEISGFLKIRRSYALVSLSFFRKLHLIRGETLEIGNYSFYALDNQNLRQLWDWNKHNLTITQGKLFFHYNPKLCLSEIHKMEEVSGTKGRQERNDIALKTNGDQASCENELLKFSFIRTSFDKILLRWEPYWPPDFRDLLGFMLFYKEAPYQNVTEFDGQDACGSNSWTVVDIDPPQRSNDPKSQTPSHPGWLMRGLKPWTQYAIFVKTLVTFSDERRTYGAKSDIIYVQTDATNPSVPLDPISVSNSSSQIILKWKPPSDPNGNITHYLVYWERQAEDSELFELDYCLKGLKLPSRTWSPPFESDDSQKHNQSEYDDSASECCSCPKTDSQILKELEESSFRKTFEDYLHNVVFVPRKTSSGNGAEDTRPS
Insulin receptor, sequence (P15127 764-1383 limits assumed): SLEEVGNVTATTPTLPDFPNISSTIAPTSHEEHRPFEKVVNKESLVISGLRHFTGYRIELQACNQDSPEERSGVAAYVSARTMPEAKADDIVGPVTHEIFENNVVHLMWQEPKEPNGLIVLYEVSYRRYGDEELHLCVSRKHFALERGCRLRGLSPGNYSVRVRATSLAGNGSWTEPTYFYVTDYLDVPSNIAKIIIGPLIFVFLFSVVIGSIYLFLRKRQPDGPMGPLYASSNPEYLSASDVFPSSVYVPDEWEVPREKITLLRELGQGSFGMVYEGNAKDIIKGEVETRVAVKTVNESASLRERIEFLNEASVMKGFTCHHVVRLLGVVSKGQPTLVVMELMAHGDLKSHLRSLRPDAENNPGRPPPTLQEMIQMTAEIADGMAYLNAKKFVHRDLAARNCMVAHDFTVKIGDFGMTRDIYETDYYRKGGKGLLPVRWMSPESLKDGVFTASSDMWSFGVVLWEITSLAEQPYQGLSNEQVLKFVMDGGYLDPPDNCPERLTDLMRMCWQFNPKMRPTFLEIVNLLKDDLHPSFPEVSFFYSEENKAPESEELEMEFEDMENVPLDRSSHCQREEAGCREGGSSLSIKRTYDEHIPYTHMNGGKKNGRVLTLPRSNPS
Mu-type opioid receptor, sequence (P35372 whole entry): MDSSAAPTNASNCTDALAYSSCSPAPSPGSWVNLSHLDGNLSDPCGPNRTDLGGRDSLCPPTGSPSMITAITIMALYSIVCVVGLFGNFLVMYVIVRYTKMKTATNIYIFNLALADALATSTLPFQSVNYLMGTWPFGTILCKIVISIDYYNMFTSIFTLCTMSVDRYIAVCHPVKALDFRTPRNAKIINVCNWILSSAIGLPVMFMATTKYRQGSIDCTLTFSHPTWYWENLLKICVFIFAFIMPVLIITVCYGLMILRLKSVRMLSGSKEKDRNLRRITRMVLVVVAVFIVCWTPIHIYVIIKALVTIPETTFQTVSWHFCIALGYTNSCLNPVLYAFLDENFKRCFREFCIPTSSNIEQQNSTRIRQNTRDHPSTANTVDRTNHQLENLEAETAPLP
D(1A) dopamine receptor, sequence (P21728 whole entry): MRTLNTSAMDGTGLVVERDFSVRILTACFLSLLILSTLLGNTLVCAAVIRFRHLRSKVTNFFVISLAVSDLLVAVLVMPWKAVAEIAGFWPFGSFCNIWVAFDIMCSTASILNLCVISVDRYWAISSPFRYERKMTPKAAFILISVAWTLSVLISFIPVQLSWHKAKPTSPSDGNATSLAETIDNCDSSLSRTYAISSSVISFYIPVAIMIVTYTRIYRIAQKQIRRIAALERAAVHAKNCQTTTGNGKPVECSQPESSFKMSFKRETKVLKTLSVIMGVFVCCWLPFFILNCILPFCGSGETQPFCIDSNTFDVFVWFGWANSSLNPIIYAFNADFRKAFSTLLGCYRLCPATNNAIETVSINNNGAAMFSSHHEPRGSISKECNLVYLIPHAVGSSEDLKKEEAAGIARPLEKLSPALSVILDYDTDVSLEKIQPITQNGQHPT

`CCn1cc(C(=O)O)c(=O)c2cnc(N3CCCC3)nc21` [PIROMIDIC ACID]: the IC50 entry (on Insulin receptor; in assay [1]; in assay [2] (insect cells); at Mu-type opioid receptor; in assay [3]; in assay [4]) was “Not Active” each time. In addition, the IC50 entry on D(1A) dopamine receptor was “Not Active”. Moreover, the Ki result in assay [1] and in assay [4] was “Not Active” in each case.

For the compound `C[n+]1ccccc1/C=N/O.[Cl-]` [PRALIDOXIME CHLORIDE], the IC50 result (at Insulin receptor; in assay [1]; in assay [2] (insect cells); at Mu-type opioid receptor; in assay [3]; in assay [4]) was “Not Active” in each case. Moreover, the IC50 entry on D(1A) dopamine receptor is “Not Active”. Also, the Ki entry in assay [1] and in assay [4] was “Not Active” in each case.

With `C[C@]12C=CC(=O)C=C1CC[C@@H]1[C@@H]2[C@@H](O)C[C@@]2(C)[C@H]1CC[C@]2(O)C(=O)CO` [PREDNISOLONE], the IC50 result (at Insulin receptor; in assay [1]; in assay [2] (insect cells); on Mu-type opioid receptor; in assay [3]; in assay [4]) was “Not Active” each time. Further, the IC50 result on D(1A) dopamine receptor is reported as “Not Active”. Also, the Ki result in assay [1] and in assay [4] was “Not Active” each time.

As for `CC(=O)[C@H]1[C@H](C#N)C[C@H]2[C@@H]3CC=C4C[C@@H](O)CC[C@]4(C)[C@H]3CC[C@@]21C` [PREGNENOLONE CARBONITRILE], the IC50 result (against Insulin receptor; in assay [1]; in assay [2] (insect cells); at Mu-type opioid receptor; in assay [3]; in assay [4]) was “Not Active” throughout. The IC50 result on D(1A) dopamine receptor was “Not Active”. For the same compound, the Ki result in assay [1] and in assay [4] was “Not Active” throughout.

Turning to `CCCN(CCC)S(=O)(=O)c1ccc(C(=O)O)cc1` [PROBENECID], the IC50 result (at Insulin receptor; in assay [1]; in assay [2] (insect cells); on Mu-type opioid receptor; in assay [3]; in assay [4]) was “Not Active” in each case. Further, the IC50 result at D(1A) dopamine receptor is “Not Active”. The Ki entry in assay [1] and in assay [4] was “Not Active” each time.

In the case of `CCCNCC(O)COc1ccccc1C(=O)CCc1ccccc1` (stereo unspecified) [PROPAFENONE], the IC50 entry (on Insulin receptor; in assay [1]; in assay [2] (insect cells); on Mu-type opioid receptor; in assay [3]; in assay [4]) was “Not Active” in each case. For the same compound, on D(1A) dopamine receptor, the IC50 result was “Not Active”. For the same compound, the Ki entry in assay [1] and in assay [4] was “Not Active” in each case.

Regarding `CCCOc1ccc(C(=O)OCCN(CC)CC)cc1N` [PROPARACAINE], the IC50 result (at Insulin receptor; in assay [1]; in assay [2] (insect cells); on Mu-type opioid receptor; in assay [3]; in assay [4]) was “Not Active” in each case. At D(1A) dopamine receptor, the IC50 entry is reported as “Not Active”. Besides, the Ki result in assay [1] and in assay [4] was “Not Active” each time.

On to `CC(C)c1cccc(C(C)C)c1O` [PROPOFOL], for which the IC50 entry (at Insulin receptor; in assay [1]; in assay [2] (insect cells); on Mu-type opioid receptor; in assay [3]; in assay [4]) was “Not Active” each time. Moreover, the IC50 entry at D(1A) dopamine receptor was “Not Active”. In addition, the Ki result in assay [1] and in assay [4] was “Not Active” each time.

`Oc1cccc(O)c1O` [PYROGALLOL]: the IC50 entry at Insulin receptor is “Not Active”; in assay [1], “Not Active”; in assay [2] (read-out: IC50), 0.997 µM; at Mu-type opioid receptor it was “Not Active”; in assay [3], “Not Active”; in assay [4], “Not Active”. For the same compound, the IC50 entry on D(1A) dopamine receptor is listed as “Not Active”. Also, the Ki entry in assay [1] and in assay [4] was “Not Active” in each case.
